This is an account of results in US20220088146A1, “Melanocortin Receptor-Specific Peptide Formulations and Methods for Gastrointestinal Tract-Specific Delivery” (Palatin Technologies, Inc., priority 2018, published 2022).

The test system of one series is 72 in vitro assays. As to the kind of experiment: Eurofins lead profile. Conditions: 10 μM.
Another series relates to MC1r. As to the kind of experiment: Functional selectivity evaluation at Cerep, MC1r. Type of series: cell-based.
Series [1] addresses T1, MC4r (Homo sapiens, UniProt P32245). As to the kind of experiment: cell-based.
Series [2] deals with DNBS-induced bowel inflammation. As to the kind of experiment: Cannulated rat DNBS model of bowel inflammation, intracolonic dosing. In kind it is in vivo. Conditions: 0.5 μg and 5.0 μg intracolonic, Wistar rats. How it is done:
The rats were implanted with a catheter in the proximal part of the ascending colon, which exited out the nape of the neck for dosing access. […] Non-cannulated control rats were administered sulfasalazine (positive controls) and vehicle (untreated controls).

Series [3] concerns the target T1, MC4r. As to the kind of experiment: Competitive inhibition binding assay using [I125]-NDP-α-MSH, hMC4r membranes. Further details: expressed in transfected cells; host or cells: HEK-293. As to conditions: human recombinant MC4r, HEK-293 membranes, read-out: MC-4 Ki (average). How it is done:
A competitive inhibition binding assay was performed using membrane homogenates prepared from HEK-293 cells that express recombinant hMC1r or hMC4r (in each instance where the h prefix refers to human), or alternatively membrane homogenates from B16-F10 mouse melanoma cells containing endogenous murine MC1r. In the examples that follow, all MC1r and MC4r values are for human recombinant receptors, unless otherwise noted. Assays were performed in 96 well polypropylene round-bottom plates (VWR catalog number 12777-030). […] After incubation for 90 minutes at 37° C., the assay mixture was filtered onto GF/B Unifilter plates (Perkin-Elmer catalog number 6005177) and washed with 3 mL of ice-cold buffer per well. Filters were air dried and 35 μL of scintillation cocktail added to each well. Plates were counted in a Microbeta counter for bound radioactivity. […] Each assay was conducted in duplicate and the actual mean values are described, with results less than 0% reported as 0%. Ki values for peptides of the present invention were determined using Graph-Pad Prism® curve-fitting software.
All results are expressed in nM except for Emax values, which are percentage values. Peptides with the captioned primary sequence were synthesized and purified as described in Section 7 above, with the resulting peptide having the structure depicted.

In a further series the target is T2, MC3r (Homo sapiens, UniProt P41968).
T2 construct: Cerep
As to the kind of experiment: Functional selectivity evaluation at Cerep, MC3r. In kind it is cell-based.

Series [4] is described as follows: Dissolution of Eudragit microparticles, USP Apparatus 2. In kind it is physicochemical. As to conditions: Lot 40 microparticles (FIG. 8). How it is done: About 1 g of the microparticles was accurately weighed and suspended in the acid at 37° C. for 2 hours. The pH of the medium was then sequentially adjusted to pH 5.5 for 1 hour, pH 6.8 for another hour and finally to pH 7.4 for 7 hours.

In the next series the target is T3, MC5r (Homo sapiens, UniProt P33032).
T3 construct: Cerep
As to the kind of experiment: Functional selectivity evaluation at Cerep, MC5r. Type of series: cell-based.

Series [5] can be described thus: Plasma assay for systemic peptide in DNBS colitis rats after oral capsules. Type of series: in vivo, rat. Conditions: oral capsules of Lot 41.
Another series concerns the target T4, MC2r (Homo sapiens, UniProt Q01718).
T4 construct: Cerep
As to the kind of experiment: Functional selectivity evaluation at Cerep, MC2r. Type of series: cell-based. An excerpt:
The results were as follows:

For a further series, the system named is TNF-α. Put plainly: Lipopolysaccharide-induced TNF-α inhibition in vitro. In kind it is cell-based.
The target in another series is hMC1r (Homo sapiens, UniProt Q01726). As to the kind of experiment: Assay for agonist activity: cAMP accumulation in HBL melanoma cells. Conditions: HBL, compared to NDP-α-MSH as 100%, read-out: MC-1 Emax (average; cAMP HBL). Further details: endogenous in cells; host or cells: HBL human melanoma cells. Type of series: cell-based. (In general: cAMP levels reflect the balance of adenylyl cyclase and phosphodiesterase activity.)

Series [6] is described as follows: Human clinical microdose study of C14-labeled oral formulation. As to conditions: single oral microdose of C14-labeled Example 9.3 formulated as for Lot 41. In kind it is in vivo. The source says: A combination of Eudragit® L100-55, Eudragit® S-100 and Eudragit® FS30D polymethacrylates were selected and utilized at a weight ratio of 23.25:23.0:12.5, where the weight of L100-55 and S-100 was dry weight of solid material, and the weight of FS30D was of a commercially prepared aqueous formulation wherein the 12.5 grams of liquid FS30D contained 3.75 grams polymer, for a weight ratio of polymer of 23.25:23:3.75. The combination of polymethacrylates were placed in acetone and stirred for an extended period. […] The dried material was retrieved, diluted with additional dried polymetacrylate mixture not containing peptide to obtain the desired target concentration in a predetermined quantity of material, and milled to the desired diameter and sieved. The sieved material was placed within a gelatin size 2 capsule to provide an oral formulation.
The oral formulation was administered in a microdose level to 24 subjects, divided into six cohorts of 4 subjects each.
The only radioactive material identified in urine was the C14 labelled phenylalanine.

T1 sequence (P32245 whole entry): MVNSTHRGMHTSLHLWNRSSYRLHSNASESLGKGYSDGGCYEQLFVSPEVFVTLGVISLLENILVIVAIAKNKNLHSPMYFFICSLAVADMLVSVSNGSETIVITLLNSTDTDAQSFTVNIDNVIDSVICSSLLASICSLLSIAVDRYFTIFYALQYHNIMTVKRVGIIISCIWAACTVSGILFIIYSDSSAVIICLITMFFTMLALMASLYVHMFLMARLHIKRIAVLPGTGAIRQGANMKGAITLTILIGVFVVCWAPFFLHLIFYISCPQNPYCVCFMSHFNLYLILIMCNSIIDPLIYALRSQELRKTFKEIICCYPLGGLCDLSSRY
hMC1r, sequence (Q01726 whole entry): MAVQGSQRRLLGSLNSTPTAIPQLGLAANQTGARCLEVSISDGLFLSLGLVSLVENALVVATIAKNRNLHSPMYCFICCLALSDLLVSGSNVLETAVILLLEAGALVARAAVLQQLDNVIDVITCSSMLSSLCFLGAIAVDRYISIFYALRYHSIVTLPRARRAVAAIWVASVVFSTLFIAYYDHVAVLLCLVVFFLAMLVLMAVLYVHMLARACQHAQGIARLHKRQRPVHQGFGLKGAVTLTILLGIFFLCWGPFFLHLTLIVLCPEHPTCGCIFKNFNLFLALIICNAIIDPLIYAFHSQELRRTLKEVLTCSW
T3 sequence (P33032 whole entry, species assumed): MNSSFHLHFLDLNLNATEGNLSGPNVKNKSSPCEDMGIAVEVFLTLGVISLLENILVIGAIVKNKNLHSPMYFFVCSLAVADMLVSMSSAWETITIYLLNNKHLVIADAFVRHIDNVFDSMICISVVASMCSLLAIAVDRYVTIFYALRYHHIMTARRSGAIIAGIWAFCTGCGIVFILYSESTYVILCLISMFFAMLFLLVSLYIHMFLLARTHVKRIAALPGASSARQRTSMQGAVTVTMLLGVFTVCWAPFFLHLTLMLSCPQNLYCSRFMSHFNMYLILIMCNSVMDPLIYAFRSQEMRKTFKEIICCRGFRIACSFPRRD
T2 sequence (P41968 whole entry, species assumed): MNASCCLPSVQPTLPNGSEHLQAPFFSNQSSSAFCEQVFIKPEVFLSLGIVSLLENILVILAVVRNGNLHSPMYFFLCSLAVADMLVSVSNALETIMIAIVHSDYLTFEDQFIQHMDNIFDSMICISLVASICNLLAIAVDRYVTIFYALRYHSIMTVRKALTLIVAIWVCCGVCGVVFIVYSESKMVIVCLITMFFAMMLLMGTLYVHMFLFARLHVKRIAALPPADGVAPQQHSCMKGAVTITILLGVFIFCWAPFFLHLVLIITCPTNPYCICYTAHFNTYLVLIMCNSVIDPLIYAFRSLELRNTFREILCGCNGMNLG
T4 sequence (Q01718 whole entry, species assumed): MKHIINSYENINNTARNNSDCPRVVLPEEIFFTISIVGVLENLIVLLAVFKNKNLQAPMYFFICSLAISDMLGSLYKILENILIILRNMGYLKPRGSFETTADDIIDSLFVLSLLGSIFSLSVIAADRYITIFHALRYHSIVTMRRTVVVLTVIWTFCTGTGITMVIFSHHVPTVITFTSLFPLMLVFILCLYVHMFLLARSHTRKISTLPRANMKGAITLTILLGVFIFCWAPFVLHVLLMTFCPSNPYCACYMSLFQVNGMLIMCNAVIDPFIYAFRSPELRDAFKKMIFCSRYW
T4 sequence (Q8TCY5 whole entry partner, species assumed): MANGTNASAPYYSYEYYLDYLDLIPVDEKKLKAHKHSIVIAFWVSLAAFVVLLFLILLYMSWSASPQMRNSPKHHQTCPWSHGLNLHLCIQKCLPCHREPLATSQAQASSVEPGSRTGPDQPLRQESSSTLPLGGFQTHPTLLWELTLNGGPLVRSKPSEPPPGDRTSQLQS

As to `CCCC[C@H](NC(C)=O)C(=O)N[C@H]1CCC(=O)NC[C@@H](C(=O)N[C@@H](Cc2c[nH]c3ccccc23)C(N)=O)NC(=O)[C@H](CCCNC(=N)N)NC(=O)[C@@H](Cc2ccccc2)NC(=O)[C@H](Cc2c[nH]cn2)NC1=O` [Example 9.3, Ac-Nle-cyclo(Glu-His-D-Phe-Arg-Dap)-Trp-NH2], the “activity in 72 in vitro assays (Eurofins lead profile)” value with 72 in vitro assays was “no activity was detected”. Moreover, the EC50 (in general, the concentration at which the effect is half-maximal) with MC1r is 0.57 nM; at MC4r [1], 510 nM; at MC3r, over 10000 nM; at MC5r, over 10000 nM; at MC2r, over 10000 nM. Also, the inflammation score entry in series [2] (FIG. 1A) is “as active as sulfasalazine”. Moreover, the colon weight result in series [2] (FIG. 1B) is “as active as sulfasalazine”. In addition, the inhibition constant Ki (commonly a measure of affinity in units of concentration, obtained from inhibition or displacement) on MC4r [3] was determined as 510 nM. Also, the entries for the “peptide release from microparticles” value in series [4] (buffer pH 4.5-5.5) and in [4] (buffer pH adjusted over time 4.5-7.5) were “no release” and “approximately total release”, respectively. Besides, in series [5], the “systemic peptide in plasma” value is on record as “did not detect any”. The “lipopolysaccharide-induced TNF-α inhibition” value in the series on TNF-α was “comparable to α-MSH and ACTH”. In addition, the Emax (as a rule, the maximal effect, on the per cent scale that the assay sets) on hMC1r was 91%. Also, the “intact peptide in plasma or urine” value in [6] is reported as “no intact peptide”. In series [6], the “peptide levels in fecal samples” value was “significant and approximately equal levels”.
